Reference: US20160206645A1, “COMBINATION THERAPIES FOR TREATMENT OF HCV” (priority 2015, published 2016)

How the values were obtained:
[1] = Pharmacokinetic analysis at week 2 and week 8 (Example 5); format: in vivo, human
[2] = Plasma PK parameters at Week 2 and Week 8, interim analysis (Example 4); format: in vivo, human; set-up: AUC: concentration or dose not given beside the values; details: for AUC / Cmax: human
Protocol: Methods: HCV treatment-naïve or (peg)IFN±ribavirin treatment-experienced GT1/4-infected cirrhotic pts≧18 yrs with Child-Pugh (CP) score<7 (Class A) with evidence of portal hypertension or 7-9 (Class B) were enrolled. Pts received 12 wks of SMV (150 mg once daily [QD]), DCV (60 mg QD) and SOF (400 mg QD). Primary efficacy endpoint: sustained virologic response 12 wks after end of treatment (EOT, SVR12). Key secondary endpoints: SVR4, on-treatment failure, viral relapse, PK and safety.

[3] = in vivo, Week 2, Child-Pugh A (n = 19), plasma
[4] = in vivo, Week 2, Child-Pugh B (n = 9), plasma
[5] = in vivo, Week 8, Child-Pugh A (n = 18), plasma
[6] = in vivo, Week 8, Child-Pugh B (n = 9), plasma
[7] = plasma, oral, Week 2, Child-Pugh A (n = 19)
[8] = plasma, oral, Week 2, Child-Pugh B (n = 9)
[9] = plasma, oral, Week 8, Child-Pugh A (n = 18)
[10] = plasma, oral, Week 8, Child-Pugh B (n = 9)

Compound | mean exposure, higher in Child-Pugh B subjects than in Child-Pugh A subjects ([1]; treatment with SMV+SOF+DCV) | Mean exposures within groups and at Wk2 vs Wk8 ([2]; CP A and CP B) | Cmax [2, 7] | AUC [2, 8] | Cmax [2, 8] | AUC [2, 9] | Cmax [2, 9] | AUC [2, 10] | Cmax [2, 10] | also measured
CC(C)OC(=O)[C@H](C)N[P@](=O)(OC[C@H]1O[C@@H](n2ccc(=O)[nH]c2=O)[C@](C)(F)[C@@H]1O)Oc1ccccc1 [Sofosbuvir, sofosbuvir] | 1.4 fold | similar | – | – | – | – | – | – | – | AUC [2, 3]: 2860 ng·h/mL; Cmax [2, 3]: 1570 ng/mL; AUC [2, 4]: 3770 ng·h/mL; Cmax [2, 4]: 1740 ng/mL; AUC [2, 5]: 2730 ng·h/mL; Cmax [2, 5]: 1280 ng/mL; AUC [2, 6]: 3770 ng·h/mL; Cmax [2, 6]: 1420 ng/mL
COC(=O)N[C@H](C(=O)N1CCC[C@H]1c1nc(-c2ccc(-c3ccc(-c4c[nH]c([C@@H]5CCCN5C(=O)[C@@H](NC(=O)OC)C(C)C)n4)cc3)cc2)c[nH]1)C(C)C [Daclatasvir, daclatasvir] | – | similar | 1150 ng/mL | 14200 ng·h/mL | 958 ng/mL | 15600 ng·h/mL | 1070 ng/mL | 13500 ng·h/mL | 854 ng/mL | mean exposure in Child-Pugh A and Child-Pugh B subjects ([1]; treatment with SMV+SOF+DCV): similar; AUC, mean ([2]; Week 2, Child-Pugh A (n = 19), plasma): 16022 ng·h/mL
C[C@@]1(F)[C@H](O)[C@@H](CO)O[C@H]1n1ccc(=O)[nH]c1=O [GS-331007] | – | – | – | – | – | – | – | – | – | mean exposure in Child-Pugh A and Child-Pugh B subjects ([1]; in vivo): similar
COc1ccc2c(O[C@@H]3C[C@H]4C(=O)N[C@]5(C(=O)NS(=O)(=O)C6CC6)C[C@H]5/C=C\CCCCN(C)C(=O)[C@@H]4C3)cc(-c3nc(C(C)C)cs3)nc2c1C [Simeprevir, simeprevir] | 2.2 fold | – | 6980 ng/mL | 144000 ng·h/mL | 7950 ng/mL | 98600 ng·h/mL | 6030 ng/mL | 176000 ng·h/mL | 8840 ng/mL | Mean exposures for both groups, Wk2 vs Wk8 ([2]; CP A and CP B): comparable; Mean SMV exposure (AUC), higher in CP B vs CP A pts ([2]; Wk2): 1.3 fold; individual pt exposures in the CP B group ([2]; compared with CP A): within the range observed for CP A; AUC [2, 7]: 114000 ng·h/mL
